Laboratory results: ChEMBL document CHEMBL1133964, “Synthesis and biological data of 4-amino-1-(2-chloro-2-phenylethyl)-1H-pyrazolo[3,4-b]pyridine-5-carboxylic acid ethyl esters, a new series of A1-adenosine receptor (A1AR) ligands” (Bioorg Med Chem Lett, 2001)

Assays:
Adenosine receptor A1 = biological target: T1, Adenosine receptor A1 (Bos taurus, UniProt P28190); experiment: Displacement of [3H]CHA from Adenosine A1 receptor in bovine cortical membrane expressed as Ki; type: cell membranes
T1 sequence (P28190 whole entry): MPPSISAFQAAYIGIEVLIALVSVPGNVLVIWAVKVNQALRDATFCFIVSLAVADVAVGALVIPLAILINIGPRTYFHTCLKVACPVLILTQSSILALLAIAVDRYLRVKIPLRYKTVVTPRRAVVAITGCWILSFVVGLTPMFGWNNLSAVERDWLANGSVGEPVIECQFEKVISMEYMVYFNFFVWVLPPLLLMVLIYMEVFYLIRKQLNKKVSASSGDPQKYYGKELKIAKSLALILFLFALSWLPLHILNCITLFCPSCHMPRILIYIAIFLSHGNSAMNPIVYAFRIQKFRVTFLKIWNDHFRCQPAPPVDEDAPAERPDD

[1] = biological target: T2, Adenosine receptor A1 (Bos taurus) (UniProt P28190); experiment: Percent inhibition of [3H]CHA binding at Adenosine A1 receptor in bovine cortical membrane at 10 uM; type: cell membranes
T2 sequence (whole entry): T1 sequence (P28190 whole entry)

[2] = test system: Adenosine receptor A2a (Bos taurus); experiment: Percent inhibition of [3H]CGS-21680 binding to A2A adenosine receptor of bovine striatal membrane at 10 uM
[3] = biological target: Adenosine receptor A2a (Bos taurus); experiment: Displacement of [3H]CGS-21680 binding at A2A adenosine receptor in bovine striatal membrane

| Structure (SMILES) | Ki (Adenosine receptor A1) [µM] | inhibition [1] [%] | inhibition [2] [%] | Ki [3] [µM] |
| --- | --- | --- | --- | --- |
| CCOC(=O)c1cnc2c(cnn2CC(Cl)c2ccccc2)c1NCCc1ccccc1 (stereo not drawn) | 0.05 |  |  |  |
| CCOC(=O)c1cnc2c(cnn2CC(Cl)c2ccccc2)c1NC1CC1 (stereo not drawn) | 0.112 |  | 10 |  |
| CCOC(=O)c1cnc2c(cnn2CC(Cl)c2ccccc2)c1N1CCCCCC1 (stereo not drawn) |  | 35 | 22 |  |
| CCOC(=O)c1cnc2c(cnn2CC(Cl)c2ccccc2)c1Nc1ccccc1 (stereo not drawn) | 0.348 |  | 11 |  |
| CCOC(=O)c1cnc2c(cnn2CC(Cl)c2ccccc2)c1NC(C)(C)C (stereo not drawn) | 4.8 |  |  |  |
| CCOC(=O)c1cnc2c(cnn2CC(Cl)c2ccccc2)c1NCc1ccccc1 (stereo not drawn) | 0.139 |  | 0 |  |
| CCOCCNc1c(C(=O)OCC)cnc2c1cnn2CC(Cl)c1ccccc1 (stereo not drawn) | 0.151 |  |  |  |
| CCCCNc1c(C(=O)OCC)cnc2c1cnn2CC(Cl)c1ccccc1 (stereo not drawn) | 4.1 |  | 3 |  |
| CCCNc1c(C(=O)OCC)cnc2c1cnn2CC(Cl)c1ccccc1 (stereo not drawn) | 0.1 |  |  |  |

Further lines, results first:

| Ki (Adenosine receptor A1) [µM] | inhibition [1] [%] | inhibition [2] [%] | Ki [3] [µM] | Structure (SMILES) |
| --- | --- | --- | --- | --- |
|  | 0 | 6 |  | CCOC(=O)c1cnc2c(cnn2CC(Cl)c2ccccc2)c1N1CCNCC1 (stereo not drawn) |
| 0.47 |  | 0 |  | CCOC(=O)c1cnc2c(cnn2CC(Cl)c2ccccc2)c1N1CCOCC1 (stereo not drawn) |
| 0.0982 |  |  |  | CCOC(=O)c1cnc2c(cnn2CC(Cl)c2ccccc2)c1N1CCCC1 (stereo not drawn) |
|  | 41 | 23 |  | CCOC(=O)c1cnc2c(cnn2CC(Cl)c2ccccc2)c1N1CCCCC1 (stereo not drawn) |
|  | 22 |  | 2.14 | CCOC(=O)c1cnc2c(cnn2CC(Cl)c2ccccc2)c1N1CCN(C)CC1 (stereo not drawn) |
